The record followed here is patent US12447171B2 (CELGENE QUANTICEL RESEARCH, INC., priority 2019, dated 2025).

The test system of data set [1] is BaF-FLT3(WT). As to the kind of experiment: Cell viability assay (Cell Titer-Glo), BaF3 cells expressing FLT3. It is filed as cell-based. Conditions: Mus musculus. A general note: In ATP-based viability assays light output follows the ATP content of the culture.
In data set [2] the test system is BaF-FLT3-ITD. The data set is described as above. It is filed as cell-based. Conditions: Mus musculus.
Data set [3] has as its system BaF-FLT3(D835Y). The description is as above. Conditions: Mus musculus. It is filed as cell-based.
Data set [4] deals with engineered BaF3 cell lines expressing either wild-type FLT3, FLT3-ITD or FLT3 (D835Y). As to the kind of experiment: Cell viability and synergy, panel of engineered BaF3 cell lines. Particulars: Mus musculus, FIG. 10A, read-out: EC50 (resistant to venetoclax). The class given is cell-based.
The test system of data set [5] is MOLM-13 xenograft model. Nature of the data set: Disseminated MOLM-13 xenograft survival study. The class given is in vivo, mice. Particulars: MOLM-13, NOD/SCID mice; single agent PO qd×21: midostaurin 100 mg/kg, gilteritinib 4 mg/kg, venetoclax 100 mg/kg; vehicle=19 days. Here is the method:
(§1) LEED models oral administration of AZA, while HELD models intravenous or subcutaneous administration of AZA.
The animals were fed ad libitum water (reverse osmosis, 1 ppm Cl), and NIH 31 Modified and Irradiated Lab Diet® consisting of 18.0% crude protein, 5.0% crude fat, and 5.0% crude fiber. The mice were housed on irradiated Enrich-o'cobs™ Laboratory Animal Bedding in static microisolators on a 12-hour light cycle at 20-22° C. (68-72° F.) and 40-60% humidity.
(§2) On each day of dosing, an appropriate amount of gilteritinib was dissolved in 0.5% methylcellulose in DI water to yield a dosing solution at 0.4 mg/mL. Each week, an appropriate amount of venetoclax was dissolved in 10% ethanol:30% PEG400:60% phosal 50 propylene glycol to yield a dosing solution at 10 mg/mL. […] Each test mouse received 5×10^6 MOLM-13 cells or 10^7 MV4-11 cells (0.2 mL cell suspension) by tail vein injection. Dosing was initiated three days after tumor cell inoculation, which was designated as Day 1 of the study. NOD/SCID mice (n=9-12/group) were randomized according to body weight and dosed. […] Vehicle was administered both IP and PO. The dosing volume for all treatments was 10 mL/kg, scaled to the weight of each individual animal.
(§3) Animals were monitored individually for an endpoint of moribundity due to progression of the leukemia. Full hind limb paralysis, severe ocular proptosis, or moribundity was considered sufficient for euthanasia due to tumor progression. Moribund animals were defined as sick animals unable to reach food and water. These deaths were classified as death on survival study. The time to endpoint (TTE), in days, was recorded for each mouse that died of its disease or was euthanized due to extensive tumor progression. […] An animal classified as having died from treatment-related (TR) causes was assigned a TTE value equal to the day of death. An animal classified as having died from non-treatment-related (NTR) causes, or used for sampling before endpoint, was excluded from TTE calculations and all further analyses. The median TTE value was calculated for each group. The median TTE of treated mice was expressed as a percentage of the median TTE of the control mice (% T/C), and the increase in life span (ILS) was calculated as: ILS=% T/C−100%, where T=median TTE treated, and C=median TTE control. Thus, if T=C, ILS=0%.
Animals were weighed daily on Days 1-5, then twice per week until the completion of the study. […] Individual body weight loss was monitored as per protocol and any animal that exceeded the limits for acceptable body weight loss was euthanized. Group mean body weight loss also was monitored as per protocol. Dosing was suspended in any group that exceeded the limits for acceptable mean body weight loss. If mean body weight recovered, then dosing may be resumed in that group, but at a lower dosage or less frequent dosing schedule. Acceptable toxicity for the maximum tolerated dose was defined as a group mean body-weight loss of less than 20% during the study and not more than one TR death among ten treated animals. […] A death was classified as NTR if there was no evidence that death was related to treatment side effects or tumor progression. Non-treatment-related deaths may be further characterized based on cause of death. A death may be classified as NTRa if it resulted from an accident or human error. A death may be classified as NTRu if the cause of death is unknown and there is no available evidence of death related to treatment side effects, metastasis, accident or human error, although death due to these etiologies cannot be excluded. Survival was analyzed by the Kaplan-Meier method, based on TTE values. The logrank (Mantel-Cox) and Gehan-Breslow-Wilcoxon tests determined the significance of the difference between the overall survival experiences (survival curves) of two groups, based on TTE values.
These experiments were repeated with a second FLT3-ITD cell line, MOLM-13.

Data set [6] concerns MV4-11 xenograft models. Nature of the data set: Disseminated MV4-11 xenograft survival study. Particulars: MV4-11, NCG mice; single agent PO qd×21: venetoclax 100 mg/kg, midostaurin 100 mg/kg; vehicle=29.5. The class given is in vivo. On the procedure: as §1
as §2, with “NOD/SCID mice (n=9-12/group) were randomized according to body weight and dosed.” left out
as §3
Animals were weighed daily on Days 1-5, then twice per week until the completion of the study. […] Individual body weight loss was monitored as per protocol and any animal that exceeded the limits for acceptable body weight loss was euthanized. Group mean body weight loss also was monitored as per protocol. Dosing was suspended in any group that exceeded the limits for acceptable mean body weight loss. If mean body weight recovered, then dosing may be resumed in that group, but at a lower dosage or less frequent dosing schedule. […] Survival was analyzed by the Kaplan-Meier method, based on TTE values. The logrank (Mantel-Cox) and Gehan-Breslow-Wilcoxon tests determined the significance of the difference between the overall survival experiences (survival curves) of two groups, based on TTE values.

Data set [7] concerns CD11b, CD14, and CD86 surface marker expression. Nature of the data set: Flow cytometry of differentiation markers in AML cell lines. It is filed as cell-based. Here is the method:
FACS samples were acquired using BD FACSCanto II. Cell viability was also examined by FACS analysis with Fixable Viability dye 780 (Thermofisher Scientific, Waltham, MA) according to the manufacturer's instructions. Briefly, 10^5 cells were seeded in U bottom 96 well plate, next day treated with 9 doses of CC-90011 (started from 10 uM, 3-fold dilution down), cells were incubated at 37° C. for 6 days and harvested for staining. Cells were washed once with DPBS and stained with 1×FVS780 and washed twice with staining buffer. The samples were stained with 1:200 dilution surface antibodies. Results were then analyzed with FlowJo V10 software (TreeStar Inc., Ashland, OR).

Data set [8] relates to 22 AML cell lines. Nature of the data set: Cell viability assay, single agents and 5-azacytidine-venetoclax combination, AML cell line panel. Particulars: number of 22 AML cell lines.
The subject of data set [9] is MCL-1. As to the kind of experiment: Western blot of MCL-1 in AML cell lines. It is filed as cell-based. Particulars: MV4-11; 20 μM Z-VAD-FMK for 1 hour before 5-azacytidine for another 16 hours. On the procedure:
Lysates were quantified using a bicinchoninic acid (BCA) kit (Piece/Thermo Fisher, Waltham, MA). 20 to 30 μg protein was resolved on a 4-12% SDS-PAGE gel, transferred to PVDF membranes (80V/90 minute by wet-transfer), and blocked with Oddysey TBS blocking buffer for 1 hour and then probed with appropriate primary antibodies overnight at 4° C. using dilution as recommended by manufacturer. Membranes were washed three times for a total of 30 minutes and then incubated with secondary antibodies at room temperature in the dark for 1 hour. After another three washes, Odyssey infrared imaging system and companion software (LI-COR biosciences, Lincoln, NE, USA) were used to scan immunoblot membranes and to quantify band intensity according to the manufacturer's instructions. The ratio of proteins of interest to loading control in treated samples was normalized to the corresponding ratio in untreated cells. Antibodies used for immunoblotting were purchased from the following sources: BCL-2 (sc-7382), MCL1- (sc-819) from Santa Cruz Biotechnology (Dallas, TX, USA, Bim (2819), caspase-3 (9664) from Cell Signaling Technology; beta-Actin (A2228) from Sigma-Aldrich; DNMTI (ab188453) from AbCam; TRDye 680 goat anti-rabbit and IRDye 800 goat anti-mouse secondary antibodies (#925-68073 and #925-32212) were purchased from Li-COR Biosciences (Lincoln, NE).
A general note: In western blotting, separated proteins are transferred to a membrane and probed.

Peptide text beside a SMILES is read from it. * marks the point of attachment. Cbz = O=C(OCc1ccccc1)*; CH2F = FC* A value given as a limit tells only on which side of the number the result lay.

For orientation: EC50 means the concentration giving half of the maximal effect.

For the molecule `CC1(C)CCC(CN2CCN(c3ccc(C(=O)NS(=O)(=O)c4ccc(NCC5CCOCC5)c([N+](=O)[O-])c4)c(Oc4cnc5[nH]ccc5c4)c3)CC2)=C(c2ccc(Cl)cc2)C1` [Venetoclax], the concentration for a half-maximal effect (EC50) in data set [1] was greater than 10000 nM; in [2] it was greater than 10000 nM; in data set [3], 4330 nM; in [4] it was greater than 1000 nM. Moreover, the Median survival in [5] was found to be 29 days; in data set [6], 35.5.
Take `CO[C@@H]1[C@H](N(C)C(=O)c2ccccc2)C[C@H]2O[C@]1(C)n1c3ccccc3c3c4c(c5c6ccccc6n2c5c31)C(=O)NC4` [Midostaurin]: the Median survival in [5] is reported as 34 days; in data set [6], 57.
For `CCc1nc(C(N)=O)c(Nc2ccc(N3CCC(N4CCN(C)CC4)CC3)c(OC)c2)nc1NC1CCOCC1` [Gilteritinib], the results for the EC50 in data set [1], in [2] and in [3] were 4 nM, 1.8 nM and 1.8 nM, respectively. In [5], this molecule yielded a Median survival of 34 days.
`COc1ccc(-c2c(-c3ccc(C#N)c(F)c3)nc(N3CCC(N)CC3)n(C)c2=O)cc1F` [CC-90011, 4-[2-(4-amino-piperidin-1-yl)-5-(3-fluoro-4-methoxy-phenyl)-1-methyl-6-oxo-1,6-dihydro-pyrimidin-4-yl]-2-fluoro-benzonitrile]: in data set [7] (five cell lines: HEL, KG-1, MOLM-13, KG-1a, and NOMO-1), the “change in differentiation markers” value is “no changes in any of these differentiation markers”. Also, the “cell lines with increased expression of at least one differentiation marker” value in data set [7] (number of 22 AML cell lines following CC-90011 treatment) is reported as “Seventeen”. In data set [8], the “cell lines sensitive to CC-90011 (single agent cytotoxicity)” value is “Eleven”.
Turning to `COC(=O)C[C@H](NC(=O)[C@H](C)NC(=O)[C@@H](NC(=O)OCc1ccccc1)C(C)C)C(=O)CF` [Z-VAD-FMK] (Cbz-Val-Ala-Asp(OMe)-CH2F), in data set [9], the “effect on MCL-1 degradation by 5-azacytidine” value is recorded as “partially ablated”.
